In patent US7576085B2, “Imidazopyrazines as cyclin dependent kinase inhibitors” (Schering Corporation, priority 2002, dated 2009):

Key:
[1] = target: T1, CDK2 (cyclin A or cyclin E) (Homo sapiens, UniProt P24941); experiment: CDK2 in vitro kinase assay (cyclin A or cyclin E dependent), SPA with biotinylated Histone H1 peptide; type: biochemical; settings: for IC50: CDK2 with cyclin A or cyclin E, 33P-ATP SPA, 1 hour at room temperature; for inhibition at 0.05 µg/mL: compound at 0.05 ug/mL, read-out: % INH @ 0.05 ug/mL; for inhibition at 0.5 µg/mL: compound at 0.5 ug/mL, read-out: % INH @ 0.5 ug/mL
T1 construct: The expressed protein was approximately 34 kDa in size; made in house; host or cells: SF9 insect cells (recombinant baculovirus, pFASTBAC)

| SMILES | melting point | IC50 [1] | also measured |
| --- | --- | --- | --- |
| Brc1cnc2c(NCCc3ccncc3)nc(-c3ccccc3)cn12 | 177 to 179 °C |  |  |
| Brc1cnc2c(NC3CCCCC3)nc(-c3ccccc3)cn12 | 145 to 146 °C |  |  |
| CC(CO)Nc1nc(-c2ccccc2Cl)cn2c(Br)cnc12 (stereo not shown) |  | 200 nM | inhibition at 0.05 µg/mL [1]: 63%; inhibition at 0.5 µg/mL [1]: 92.7% |
| Cc1cnc2c(Nc3ccccc3)nccn12 [drawing 711] |  | 15000 nM |  |
| Clc1ccccc1-c1cn2c(Cl)cnc2c(NCc2cccnc2)n1 | 127 to 129 °C |  |  |
| Clc1ccccc1-c1cn2c(Br)cnc2c(NCCCn2cccc2)n1 |  |  | inhibition at 0.05 µg/mL [1]: 42.2%; inhibition at 0.5 µg/mL [1]: 48.8% |
| Cc1cnc2c(Nc3ccccc3)nccn12 | 182 to 184 °C |  |  |
| Clc1ccccc1-c1cn2c(I)cnc2c(NCc2cccnc2)n1 |  | 230 nM |  |
| O=C1CCCN1CCCNc1nc(-c2ccccc2Cl)cn2c(Br)cnc12 |  |  | inhibition at 0.05 µg/mL [1]: 30.7%; inhibition at 0.5 µg/mL [1]: 67.8% |
| FC(F)(F)c1ccc(CNc2nc(-c3ccccc3)cn3c(Br)cnc23)cn1 |  | 4550 nM |  |
| c1ccc(-c2cn3c(-c4ccccc4)cnc3c(NCc3cccnc3)n2)cc1 |  | 6700 nM |  |
| Cc1cnc2c(NCc3ccncc3)nccn12 | 183 to 185 °C |  |  |
| Brc1cnc2c(Nc3ccccc3)nc(-c3ccccc3)cn12 | 169 to 170 °C |  |  |
| Brc1cnc2c(NCCc3cccnc3)nc(-c3ccccc3)cn12 | 120 to 122 °C |  |  |
| Cc1cnc2c(NC(c3ccccc3)c3ccccc3)nccn12 | 186 to 188 °C |  |  |
| Clc1ccccc1-c1cn2c(Br)cnc2c(NCCCn2ccnc2)n1 |  |  | inhibition at 0.05 µg/mL [1]: 37.5%; inhibition at 0.5 µg/mL [1]: 29.4% |

| SMILES | melting point | IC50 [1] | also measured |
| --- | --- | --- | --- |
| Ic1cnc2c(NCc3ccncc3)nc(-c3ccccc3)cn12 [drawing 714] |  | 530 nM |  |
| Clc1ccccc1-c1cn2c(I)cnc2c(NCc2ccncc2)n1 | 162 to 164 °C |  |  |
| Clc1ccccc1-c1cn2c(Cl)cnc2c(NCc2cccnc2)n1 [drawing 718] |  | 430 nM |  |
| Cc1cnc2c(NCCc3ccncc3)nccn12 | 130 to 132 °C |  |  |
| Cc1cnc2c(NCc3ccncc3)nccn12 [drawing 712] |  | 22500 nM |  |
| Clc1ccccc1-c1cn2c(Br)cnc2c(NCc2cccnc2)n1 |  | 240 nM | inhibition at 0.05 µg/mL [1]: 47.4%; inhibition at 0.5 µg/mL [1]: 88.6% |
| CC(=O)c1cnc2c(NCc3cccnc3)nc(-c3ccccc3)cn12 |  | 4700 nM |  |
| Brc1cnc2c(NCCc3cccnc3)nc(-c3ccccc3)cn12 [drawing 713] |  | 4180 nM |  |
| COCCCNc1nc(-c2ccccc2Cl)cn2c(Br)cnc12 |  |  | inhibition at 0.05 µg/mL [1]: 30.7%; inhibition at 0.5 µg/mL [1]: 71.5% |
| Ic1cnc2c(NCc3cccnc3)nc(-c3ccccc3)cn12 | 204 to 206 °C |  |  |
| COCCNc1nccn2c(C)cnc12 | 104 to 105 °C |  |  |
| Clc1ccccc1-c1cn2c(Br)cnc2c(NCc2ccncc2)n1 |  | 490 nM |  |
| Ic1cnc2c(NCc3ccncc3)nc(-c3ccccc3)cn12 | 139 to 141 °C |  |  |
| Cc1cnc2c(NCc3cccnc3)nccn12 | 143 to 145 °C |  |  |
| Cc1cnc2c(NCc3ccccc3)nccn12 | 152 to 154 °C |  |  |
| O=C(c1cccc(C(F)(F)F)c1)N1CCC(Nc2nc(-c3ccccc3Cl)cn3c(Br)cnc23)CC1 | 175 to 177 °C |  |  |
